Data from patent publication US20230045902A1, “COMPOSITION FOR REINFORCING FUNCTION OF STEM CELL” (SCM LIFE SCIENCE CO., LTD., priority 2020, published 2023).

Legend:
Format in all cases: cell-based
[1] = test system: indoleamine 2,3-dioxygenase (IDO); test: IDO expression change in mesenchymal stem cells by qRT-PCR; settings: MSC treated 24 hours, Table 1 concentrations; FIG. 6
Method: At 37° C. and 5% CO2 incubator, mesenchymal stem cells in storage state (stored in LN2 tank) were thawed and cultured. At this time, they were cultured in a medium (DMEM, alpha-MEM) containing 10% FBS or 4% hPL. Cells were cultured until confluence reached about 80%. After seeding the cultured mesenchymal stem cells in a 100 mm dish, a candidate material for enhancing the mesenchymal stem cell function was selected.
The selected 20 ng/ml of IL-1β and vitamin B6 and IFN-α at different concentrations were combined, and the effect was confirmed by the change in indoleamine 2,3-dioxygenase (IDO) expression. IDO is known as an immunomodulatory factor that suppresses the proliferation of immune cells such as T cells by changing tryptophan, which is essential for T cell proliferation, into kynurenine. After culturing stem cells, total RNA was isolated using TRIzol (Invitrogen), and cDNA was synthesized from total RNA using PrimeScript™ reagent Kit with gDNA Eraser (TaKaRa), followed by qRT-PCR.
The selected candidate substances and their concentration combinations are shown in Table 1, and they were treated to mesenchymal stem cells for 24 hours, and the function-enhancing effect was confirmed. […]

[2] = test system: IFN-γ; test: IFN-γ secretion in PHA-activated T-cells co-cultured with treated mesenchymal stem cells (IFN-γ kit); settings: MSC treated 24 hours (Table 1 concentrations), co-cultured 3 days with PHA-activated T-cells; FIG. 3
Excerpt: As a control group, mesenchymal stem cells that were not treated with the test substance were used.

[3] = test system: Inducible costimulatory ligand (ICOSL); test: ICOSL expression change in mesenchymal stem cells by qRT-PCR; settings: MSC treated 24 hours, Table 1 concentrations; FIG. 4
Method: Inducible costimulatory ligand (ICOSL) is known to inhibit activated T cells by inducing regulatory T cells. Since the function-enhancing effect of the mesenchymal stem cells according to the treatment with the experimental group was confirmed in Example 1.1, an experiment was performed to additionally confirm whether the treatment with the experimental group induces inflammation and immune regulation ability of the mesenchymal stem cells. After culturing stem cells as in Experimental Example 1, total RNA was isolated using TRIzol (Invitrogen), and then cDNA was synthesized from total RNA using PrimeScript™ reagent Kit with gDNA Eraser (TaKaRa) and qRT-PCR was performed. Through this, the expression change of ICOSL, which is a representative factor of inflammation and immune regulation, was confirmed, and the results are shown in FIG. 4.

[4] = test system: Galectin 1; test: Galectin 1 expression change in mesenchymal stem cells by qRT-PCR; settings: MSC treated 24 hours, Table 1 concentrations; FIG. 5
Excerpt: 1.3. Confirmation of Change in Galectin 1 Expression According to the Treatment with the Experimental Group Galectin 1 is known as a stem cell potency marker closely related to the high efficacy of stem cells, and it is known that the more the expression increases, the stronger the stem cell function and efficacy. Therefore, in order to further confirm whether the treatment with the experimental group induces the inflammation and immune regulation ability of the mesenchymal stem cells, an experiment was performed to confirm the expression of Galectin 1. After culturing stem cells as in Experimental Example 1, total RNA was isolated using TRIzol (Invitrogen), and then cDNA was synthesized from total RNA using PrimeScript™ reagent Kit with gDNA Eraser (TaKaRa) and qRT-PCR was performed. Using this, a change in the expression of Galectin 1, an indicator of stem cell efficacy, was confirmed, and the result is shown in FIG. 5.

[5] = test system: TSG6 and IDO; test: Concentration setting of IL-1β in MSC by expression of TSG6 and IDO; settings: treated in MSC
Method: IL-1β, IFN-α and vitamin B6 were selected as candidate substances, and concentrations for function-enhancing were set. When IL-1β was treated in MSC, it was confirmed that the lowest effective concentration capable of increasing the expression of TSG6 and IDO was 20 ng/ml, and this was set as the standard.

Molecule | IDO expression change [1] | change in IFN-γ secretion compared to the untreated control group [2] | expression of ICOSL [3] | expression of Galectin 1 [4] | lowest effective concentration capable of increasing the expression of TSG6 and IDO [5] [ng/mL]
Cc1ncc(CO)c(CO)c1O.Cl [vitamin B6] | did not show a distinct expression change | not significant | did not show a distinct increase | did not show a distinct increase | –
Interleukin 1 beta (IL-1β) | did not show a distinct expression change | not significant | increased | increased | 20
interferon alpha (IFN-α) | – | not significant | did not show a distinct increase | – | –
